Laboratory results as given in patent US10208089B2, “Modulation of complement activity” (priority 2014, dated 2019).
Starred links: 1 amine or outer side, 2 acyl side, 3 side chain; linkers in the order of their positions; H or OH if unused. Positions of bridges follow the written chain, without caps; N, C: chain ends. Non-standard residues stand in square brackets, D forms with d. Residues, ends and D or L forms follow the SMILES beside them. Trp(7-aza) = N[C@@H](Cc1c[nH]c2ncccc12)C(=O)O; mXylylene = c1cc(C[*:1])cc(C[*:2])c1; Phg = N[C@H](C(=O)O)c1ccccc1; Tle = CC(C)(C)[C@H](N)C(=O)O; NMeS = CN[C@@H](CO)C(=O)O; NMeA = CN[C@@H](C)C(=O)O; Nva = CCC[C@H](N)C(=O)O

Biological target: C5 (Homo sapiens, UniProt P01031)
Sequence (P01031 19-1676): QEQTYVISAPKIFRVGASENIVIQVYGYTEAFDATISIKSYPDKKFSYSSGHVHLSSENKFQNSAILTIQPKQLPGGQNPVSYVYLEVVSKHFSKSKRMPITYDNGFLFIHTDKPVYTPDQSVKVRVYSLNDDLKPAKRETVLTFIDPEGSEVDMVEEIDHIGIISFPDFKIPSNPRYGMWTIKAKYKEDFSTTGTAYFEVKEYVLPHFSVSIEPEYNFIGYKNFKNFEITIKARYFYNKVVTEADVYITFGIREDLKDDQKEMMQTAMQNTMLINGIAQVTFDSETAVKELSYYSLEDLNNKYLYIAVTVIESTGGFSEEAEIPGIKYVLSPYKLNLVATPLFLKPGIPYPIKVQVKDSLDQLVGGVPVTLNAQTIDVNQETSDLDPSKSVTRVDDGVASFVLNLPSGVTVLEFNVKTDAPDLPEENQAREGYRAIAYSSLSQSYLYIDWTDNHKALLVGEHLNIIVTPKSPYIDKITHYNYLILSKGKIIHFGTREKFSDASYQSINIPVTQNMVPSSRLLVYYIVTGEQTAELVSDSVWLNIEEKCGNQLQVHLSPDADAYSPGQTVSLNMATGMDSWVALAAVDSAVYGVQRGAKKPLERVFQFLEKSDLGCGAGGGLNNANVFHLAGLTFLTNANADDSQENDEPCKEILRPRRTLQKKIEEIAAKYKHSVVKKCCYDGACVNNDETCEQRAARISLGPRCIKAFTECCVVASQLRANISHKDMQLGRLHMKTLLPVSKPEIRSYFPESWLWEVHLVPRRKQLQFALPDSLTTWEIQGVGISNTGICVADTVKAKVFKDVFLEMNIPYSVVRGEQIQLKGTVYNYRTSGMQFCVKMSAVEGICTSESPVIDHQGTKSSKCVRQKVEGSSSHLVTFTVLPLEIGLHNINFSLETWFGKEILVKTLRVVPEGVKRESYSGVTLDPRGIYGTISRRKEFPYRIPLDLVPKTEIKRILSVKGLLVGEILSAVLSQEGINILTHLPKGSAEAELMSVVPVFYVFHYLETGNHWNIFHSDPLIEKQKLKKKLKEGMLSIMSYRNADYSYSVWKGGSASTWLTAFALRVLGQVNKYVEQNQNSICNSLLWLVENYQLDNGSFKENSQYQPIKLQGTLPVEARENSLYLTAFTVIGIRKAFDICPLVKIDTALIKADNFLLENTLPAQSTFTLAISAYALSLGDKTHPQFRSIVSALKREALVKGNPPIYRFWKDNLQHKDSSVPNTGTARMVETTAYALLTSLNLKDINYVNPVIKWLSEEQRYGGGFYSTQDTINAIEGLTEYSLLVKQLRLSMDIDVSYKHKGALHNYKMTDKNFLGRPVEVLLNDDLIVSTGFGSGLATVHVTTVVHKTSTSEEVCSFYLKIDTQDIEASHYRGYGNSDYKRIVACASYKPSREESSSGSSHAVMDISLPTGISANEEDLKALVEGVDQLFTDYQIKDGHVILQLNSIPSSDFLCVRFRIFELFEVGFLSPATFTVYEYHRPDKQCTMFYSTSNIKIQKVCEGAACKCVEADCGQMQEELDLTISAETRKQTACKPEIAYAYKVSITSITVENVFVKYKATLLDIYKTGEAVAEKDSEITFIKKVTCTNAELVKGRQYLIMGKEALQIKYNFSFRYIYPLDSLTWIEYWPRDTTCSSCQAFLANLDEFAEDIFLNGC
Experiment: Human hemolysis assay (RBC lysis assay using complete human sera)
Assay type: cell-based
Design: with complete human sera (Complement Technology, Tyler Tex.) and polypeptides; tissue Complement Technology, Tyler Tex; host or cells: complete human serum
[1] = inhibition of lysis of antibody-sensitized sheep erythrocytes, complete human sera
[2] = C-terminally truncated polypeptide variants of R3021, inhibition of red blood cell lysis

Structure (SMILES) | IC50 [1] [µM] | IC50 (7-azatryptophan variant polypeptides of R3008, inhibition of red blood cell lysis) [µM] | IC50 [2] [µM]
CCC[C@H](NC(=O)[C@@H]1CCCN1C(=O)[C@H](CCC)NC(=O)[C@H](CS)NC(=O)[C@H](Cc1c[nH]cn1)NC(=O)[C@H](CO)N(C)C(=O)[C@H](Cc1ccc(O)cc1)NC(=O)[C@H](CCC(=O)O)NC(=O)[C@H](Cc1c[nH]c2ncccc12)NC(=O)[C@@H](NC(=O)[C@@H](NC(=O)[C@H](CS)NC(=O)[C@H](CCC)NC(C)=O)c1ccccc1)[C@@H](C)O)C(N)=O [Compound R3022, Ac-Nvl-C-Phg-T-azaTrp-E-Y-(N-Me)S-H-C-Nvl-P-Nvl-NH2] (Ac-[Nva]C[Phg]T[Trp(7-aza)]EY[NMeS]HC[Nva]P[Nva]-NH2) | > 10.2 | – | –
CCC[C@H](NC(=O)[C@@H](NC(=O)[C@@H]1CCCN1C(=O)[C@H](Cc1ccc(O)cc1)NC(=O)[C@H](CCC(=O)O)NC(=O)[C@H](Cc1c[nH]c2ncccc12)NC(=O)[C@H](Cc1ccc(O)cc1)NC(=O)[C@@H](NC(C)=O)C(C)(C)C)c1ccccc1)C(N)=O [Compound R3028, Ac-Tbg-Y-azaTrp-E-Y-P-Phg-Nvl-NH2] (Ac-[Tle]Y[Trp(7-aza)]EYP[Phg][Nva]-NH2) | > 10 | – | –
CCC[C@H](NC(=O)[C@@H]1CSCc2cccc(c2)CSC[C@H](NC(=O)[C@H](C)NC(C)=O)C(=O)N[C@@H](c2ccccc2)C(=O)N[C@@H]([C@@H](C)O)C(=O)N[C@@H](Cc2c[nH]c3ncccc23)C(=O)N[C@@H](CCC(=O)O)C(=O)N[C@@H](Cc2ccc(O)cc2)C(=O)N(C)[C@@H](CO)C(=O)N[C@@H](Cc2c[nH]cn2)C(=O)N1)C(N)=O [Compound R3031, [mXylyl(2,10)]Ac-A-C-Phg-T-azaTrp-E-Y-(N-Me)S-H-C-Nvl-NH2] (Ac-AC[Phg]T[Trp(7-aza)]EY[NMeS]HC[Nva]-NH2; linker 2-10 via mXylylene) | 1.09 | – | –
CCC[C@H](NC(=O)[C@@H]1CSCc2cccc(c2)CSC[C@H](NC(=O)[C@H](CCC)NC(C)=O)C(=O)N[C@@H](C)C(=O)N[C@@H]([C@@H](C)O)C(=O)N[C@@H](Cc2c[nH]c3ncccc23)C(=O)N[C@@H](CCC(=O)O)C(=O)N[C@@H](Cc2ccc(O)cc2)C(=O)N(C)[C@@H](CO)C(=O)N[C@@H](Cc2c[nH]cn2)C(=O)N1)C(N)=O [Compound R3032, [mXylyl(2,10)]Ac-Nvl-C-A-T-azaTrp-E-Y-(N-Me)S-H-C-Nvl-NH2] (Ac-[Nva]CAT[Trp(7-aza)]EY[NMeS]HC[Nva]-NH2; linker 2-10 via mXylylene) | > 10 | – | –
CCC[C@H](NC(=O)[C@@H]1CSCc2cccc(c2)CSC[C@H](NC(=O)[C@H](CCC)NC(C)=O)C(=O)N[C@@H](c2ccccc2)C(=O)N[C@@H](C)C(=O)N[C@@H](Cc2c[nH]c3ncccc23)C(=O)N[C@@H](CCC(=O)O)C(=O)N[C@@H](Cc2ccc(O)cc2)C(=O)N(C)[C@@H](CO)C(=O)N[C@@H](Cc2c[nH]cn2)C(=O)N1)C(N)=O [Compound R3033, [mXylyl(2,10)]Ac-Nvl-C-Phg-A-azaTrp-E-Y-(N-Me)S-H-C-Nvl-NH2] (Ac-[Nva]C[Phg]A[Trp(7-aza)]EY[NMeS]HC[Nva]-NH2; linker 2-10 via mXylylene) | 0.131 | – | –
CCC[C@H](NC(=O)[C@@H]1CSCc2cccc(c2)CSC[C@H](NC(=O)[C@H](CCC)NC(C)=O)C(=O)N[C@@H](c2ccccc2)C(=O)N[C@@H]([C@@H](C)O)C(=O)N[C@@H](C)C(=O)N[C@@H](CCC(=O)O)C(=O)N[C@@H](Cc2ccc(O)cc2)C(=O)N(C)[C@@H](CO)C(=O)N[C@@H](Cc2c[nH]cn2)C(=O)N1)C(N)=O [Compound R3034, [mXylyl(2,10)]Ac-Nvl-C-Phg-T-A-E-Y-(N-Me)S-H-C-Nvl-NH2] (Ac-[Nva]C[Phg]TAEY[NMeS]HC[Nva]-NH2; linker 2-10 via mXylylene) | > 50 | > 50 | –
CCC[C@H](NC(=O)[C@@H]1CSCc2cccc(c2)CSC[C@H](NC(=O)[C@H](CCC)NC(C)=O)C(=O)N[C@@H](c2ccccc2)C(=O)N[C@@H]([C@@H](C)O)C(=O)N[C@@H](Cc2c[nH]c3ncccc23)C(=O)N[C@@H](C)C(=O)N[C@@H](Cc2ccc(O)cc2)C(=O)N(C)[C@@H](CO)C(=O)N[C@@H](Cc2c[nH]cn2)C(=O)N1)C(N)=O [Compound R3035, [mXylv1(2,10)]Ac-Nvl-C-Phg-T-azaTrp-A-Y-(N-Me)S-H-C-Nvl-NH2] (Ac-[Nva]C[Phg]T[Trp(7-aza)]AY[NMeS]HC[Nva]-NH2; linker 2-10 via mXylylene) | > 50 | – | –
CCC[C@H](NC(=O)[C@@H]1CSCc2cccc(c2)CSC[C@H](NC(=O)[C@H](CCC)NC(C)=O)C(=O)N[C@@H](c2ccccc2)C(=O)N[C@@H]([C@@H](C)O)C(=O)N[C@@H](Cc2c[nH]c3ncccc23)C(=O)N[C@@H](CCC(=O)O)C(=O)N[C@@H](C)C(=O)N(C)[C@@H](CO)C(=O)N[C@@H](Cc2c[nH]cn2)C(=O)N1)C(N)=O [Compound R3036, [mXylyl(2,10)]Ac-Nvl-C-Phg-T-azaTrp-E-A-(N-Me)S-H-C-Nvl-NH2] (Ac-[Nva]C[Phg]T[Trp(7-aza)]EA[NMeS]HC[Nva]-NH2; linker 2-10 via mXylylene) | > 50 | – | –
CCC[C@H](NC(=O)[C@@H]1CSCc2cccc(c2)CSC[C@H](NC(=O)[C@H](CCC)NC(C)=O)C(=O)N[C@@H](c2ccccc2)C(=O)N[C@@H]([C@@H](C)O)C(=O)N[C@@H](Cc2c[nH]c3ncccc23)C(=O)N[C@@H](CCC(=O)O)C(=O)N[C@@H](Cc2ccc(O)cc2)C(=O)N(C)[C@@H](C)C(=O)N[C@@H](Cc2c[nH]cn2)C(=O)N1)C(N)=O [Compound R3037, [mXylyl(2,10)]Ac-Nvl-C-Phg-T-azaTrp-E-Y-(N-Me)A-H-C-Nvl-NH2] (Ac-[Nva]C[Phg]T[Trp(7-aza)]EY[NMeA]HC[Nva]-NH2; linker 2-10 via mXylylene) | 0.276 | – | –
CCC[C@H](NC(=O)[C@@H]1CSCc2cccc(c2)CSC[C@H](NC(=O)[C@H](CCC)NC(C)=O)C(=O)N[C@@H](c2ccccc2)C(=O)N[C@@H]([C@@H](C)O)C(=O)N[C@@H](Cc2c[nH]c3ncccc23)C(=O)N[C@@H](CCC(=O)O)C(=O)N[C@@H](Cc2ccc(O)cc2)C(=O)N(C)[C@@H](CO)C(=O)N[C@@H](C)C(=O)N1)C(N)=O [Compound R3038, [mXylyl(2,10)]Ac-Nvl-C-Phg-T-azaTrp-E-Y-(N-Me)S-A-C-Nvl-NH2] (Ac-[Nva]C[Phg]T[Trp(7-aza)]EY[NMeS]AC[Nva]-NH2; linker 2-10 via mXylylene) | 0.14 | – | –
CCC[C@H](NC(C)=O)C(=O)N[C@H]1CSCc2cccc(c2)CSC[C@@H](C(=O)N[C@@H](C)C(N)=O)NC(=O)[C@H](Cc2c[nH]cn2)NC(=O)[C@H](CO)N(C)C(=O)[C@H](Cc2ccc(O)cc2)NC(=O)[C@H](CCC(=O)O)NC(=O)[C@H](Cc2c[nH]c3ncccc23)NC(=O)[C@H]([C@@H](C)O)NC(=O)[C@H](c2ccccc2)NC1=O [Compound R3039, [mXylyl(2,10)]Ac-Nvl-C-Phg-T-azaTrp-E-Y-(N-Me)S-H-C-A-NH2] (Ac-[Nva]C[Phg]T[Trp(7-aza)]EY[NMeS]HCA-NH2; linker 2-10 via mXylylene) | 0.24 | – | –
CCC[C@H](NC(=O)[C@@H](NC(=O)[C@@H]1CCCN1C(=O)[C@H](Cc1ccc(O)cc1)NC(=O)[C@H](CCC(=O)O)NC(=O)[C@H](Cc1c[nH]c2ccccc12)NC(=O)[C@H](Cc1ccc(O)cc1)NC(=O)[C@@H](NC(=O)[C@H](CC(N)=O)NC(=O)[C@H](CCC(=O)O)NC(=O)[C@H](Cc1ccc(O)cc1)NC(C)=O)C(C)(C)C)c1ccccc1)C(N)=O [Compound R3041, Ac-Y-E-N-Tbg-Y-W-E-Y-P-Phg-Nvl-NH2] | 0.0713 | – | –
CCC[C@H](NC(=O)[C@@H]1CSSC[C@H](NC(=O)[C@H](CCC)NC(C)=O)C(=O)N[C@@H](c2ccccc2)C(=O)N[C@@H]([C@@H](C)O)C(=O)N[C@@H](Cc2c[nH]c3ncccc23)C(=O)N[C@@H](CCC(=O)O)C(=O)N[C@@H](Cc2ccc(O)cc2)C(=O)N(C)[C@@H](CO)C(=O)N[C@@H](Cc2c[nH]cn2)C(=O)N1)C(N)=O [Compound R3042, [cyclo(2,10)]Ac-Nvl-C-Phg-T-azaTrp-E-Y-(N-Me)S-H-C-Nvl-NH2] (Ac-[Nva]C[Phg]T[Trp(7-aza)]EY[NMeS]HC[Nva]-NH2; disulfide 2-10) | > 100 | – | –
CSCC[C@H](N)C(=O)N[C@H]1CSCc2cccc(c2)CSC[C@@H](C(=O)N[C@@H](CC(=O)O)C(=O)N[C@H](C(=O)N[C@@H](Cc2ccc(O)cc2)C(=O)N[C@@H](Cc2c[nH]c3ccccc23)C(N)=O)C(C)C)NC(=O)[C@H](Cc2ccccc2)NC(=O)[C@H](CCCNC(=N)N)NC(=O)[C@H](CCC(=O)O)NC(=O)[C@H](C(C)C)NC1=O [Compound R3044, [mXylyl(2,7)]M-C-V-E-R-F-C-D-V-Y-W-NH2] (H-MCVERFCDVYW-NH2; linker 2-7 via mXylylene) | > 50 | – | > 50
CSCC[C@H](N)C(=O)N[C@H]1CSCc2cccc(c2)CSC[C@@H](C(=O)N[C@@H](CC(=O)O)C(=O)N[C@H](C(=O)N[C@@H](Cc2ccc(O)cc2)C(N)=O)C(C)C)NC(=O)[C@H](Cc2ccccc2)NC(=O)[C@H](CCCNC(=N)N)NC(=O)[C@H](CCC(=O)O)NC(=O)[C@H](C(C)C)NC1=O [Compound R3045, [mXylyl(2,7)]M-C-V-E-R-F-C-D-V-Y-NH2] (H-MCVERFCDVY-NH2; linker 2-7 via mXylylene) | > 100 | – | > 100
CSCC[C@H](N)C(=O)N[C@H]1CSCc2cccc(c2)CSC[C@@H](C(=O)N[C@@H](CC(=O)O)C(=O)N[C@H](C(N)=O)C(C)C)NC(=O)[C@H](Cc2ccccc2)NC(=O)[C@H](CCCNC(=N)N)NC(=O)[C@H](CCC(=O)O)NC(=O)[C@H](C(C)C)NC1=O [Compound R3046, [mXylyl(2,7)]M-C-V-E-R-F-C-D-V-NH2] (H-MCVERFCDV-NH2; linker 2-7 via mXylylene) | > 100 | – | > 100
CSCC[C@H](N)C(=O)N[C@H]1CSCc2cccc(c2)CSC[C@@H](C(N)=O)NC(=O)[C@H](Cc2ccccc2)NC(=O)[C@H](CCCNC(=N)N)NC(=O)[C@H](CCC(=O)O)NC(=O)[C@H](C(C)C)NC1=O [Compound R3047, [mXylyl(2,7)]M-C-V-E-R-F-C-NH2] (H-MCVERFC-NH2; linker 2-7 via mXylylene) | > 100 | – | > 100
